Results from ChEMBL document CHEMBL3244211, “5-Carboxamido-4-amino-3-isoxazolidone, and asparagine analogue” (J Med Chem, 1978).
Activity calls are given as the source filed them. The rule behind the calls is not given here.

What was measured:
[1] = biological target: T1, Asparagine synthetase [glutamine-hydrolyzing] (Rattus norvegicus) (UniProt P49088); experiment: Inhibition of asparagine synthetase in rat Novikoff hepatoma
T1 sequence (whole entry): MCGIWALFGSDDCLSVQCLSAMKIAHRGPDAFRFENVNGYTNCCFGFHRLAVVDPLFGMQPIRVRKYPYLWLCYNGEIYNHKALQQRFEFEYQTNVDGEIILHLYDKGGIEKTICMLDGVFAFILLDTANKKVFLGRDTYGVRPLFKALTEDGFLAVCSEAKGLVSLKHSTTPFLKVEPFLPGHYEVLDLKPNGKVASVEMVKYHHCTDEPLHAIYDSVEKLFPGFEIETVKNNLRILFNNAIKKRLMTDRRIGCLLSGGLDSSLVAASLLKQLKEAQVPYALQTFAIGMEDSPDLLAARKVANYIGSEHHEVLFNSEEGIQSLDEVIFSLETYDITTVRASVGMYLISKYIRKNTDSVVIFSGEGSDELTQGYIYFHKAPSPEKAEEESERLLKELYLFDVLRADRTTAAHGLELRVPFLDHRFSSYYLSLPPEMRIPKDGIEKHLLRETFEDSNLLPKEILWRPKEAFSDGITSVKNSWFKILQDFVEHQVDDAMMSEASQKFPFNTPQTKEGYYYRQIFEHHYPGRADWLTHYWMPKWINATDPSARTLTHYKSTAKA

[2] = tested on: Mus musculus; experiment: Toxicity in mouse P388 cells allografted BDF1 mouse assessed as mortality at 200 mg/kg, ip qd for 9 days; type: organism-based; parameters: dose 200 mg/kg, route intraperitoneal; conditions: in vivo, 216 h
[3] = tested on: L1210; experiment: Antitumor activity against mouse L1210 cells allografted in BDF1 mouse assessed as increase of host survival time at 100 mg/kg, ip; type: functional
[4] = tested on: P388; experiment: Antitumor activity against mouse P388 cells allografted in BDF1 mouse assessed as increase of host survival time at 200 mg/kg, ip qd for 9 days; type: functional

Question: With `NC(=O)[C@H]1ONC(=O)[C@@H]1N` (relative stereo) as the compound, how does the inhibition [1] read?
Answer: inactive

Question: And the Activity [2]?
Answer: Non-toxic

Question: What about the Activity [3] of the same compound?
Answer: inactive

Question: What about the Activity [4] of the same compound?
Answer: inactive

Question: Which results are given for `O=C(NO)[C@H]1N[C@@H]1C(=O)NO` (relative stereo)?
Answer: Activity [2]: Non-toxic; Activity ([3]; route intraperitoneal): 13%; T/C ([4]; route intraperitoneal): 128%
